Test results taken from patent US7414128B2, “Crystalline R-guanidines, Arginine or (L)-Arginine (2S)-2-Ethoxy-3-{4-[2-(10H -phenoxazin-10-yl)ethoxy]phenyl}propanoate” (Dr. Reddy's Laboratories, Limited, priority 2002, dated 2008).
Structures can show the parent of a compound that is named as a salt.

How the values were obtained:
aqueous solubility = type: physicochemical; conditions: salt compared with the free acid
[1] = hygroscopicity at high relative humidity; type: physicochemical; conditions: even at relative humidities as high as 90 RH
bioavailability = conditions: attributed to the higher aqueous solubility
stability of the salt = type: physicochemical

With `CCO[C@@H](Cc1ccc(OCCN2c3ccccc3Oc3ccccc32)cc1)C(=O)O` [(L)-Arginine salt, (L)-Arginine (2S)-2-Ethoxy-3-{4-[2-(10H-phenoxazin-10-yl)ethoxy]phenyl}propanoate] the “solubility in aqueous media” value (aqueous solubility) was “significantly higher aqueous solubility”, the hygroscopicity [1] was “not hygroscopic” and the bioavailability (bioavailability) was “good bioavailability”. For the same compound, the stability (stability of the salt) was “highly stable”.
In the case of `CCO[C@@H](Cc1ccc(OCCN2c3ccccc3Oc3ccccc32)cc1)C(=O)O` [(2S)-2-Ethoxy-3-{4-[2-(10H-phenoxazin-10-yl)ethoxy]phenyl}pr] [(2S)-2-Ethoxy-3-{4-[2-(10H-phenoxazin-10-yl)ethoxy]phenyl}propanoic acid], the “solubility in aqueous media” value (aqueous solubility) is reported as “sparingly soluble”.
